Results published in patent US9855273B2, “Combination therapy for MDS” (priority 2013, dated 2018).
pIC50: −log10 of the molar value. Like-named read-outs stand apart in the source and are kept apart here.

Legend:
IRAK1 = IRAK1 (Homo sapiens, UniProt P51617); settings: Powers et al., 2006, cited from earlier work
AML patient cells = experiment: Colony formation in methylcellulose, primary AML cells; type: cell-based, human
From the text: (§4) We evaluated marrow cells from 7 MDS and 3 AML patient samples with various cytogenetic features to determine whether IRAK1 inhibition is also effective in primary patient cells (Table S1). […] Since MDS and AML stem/progenitor cells are clonal and the disease-propagating cells form colonies in methylcellulose, we also evaluated the effects of IRAK-Inh on colony formation.

MDSL cells [1] = experiment: MDSL xenograft, cells pre-treated in vitro, NSG mice; type: in vivo
Experimental: (§1) Xenograftment of NOD/SCID-IL2Rγ(NSG) and NSG-hSCF/hGM-CSF/hIL3 (NSGS) MDSL cells (1×10^6-5×10^6) were injected into the tail veins of 8-week old sublethally irradiated ([…]) NSG or NSG animals engineered to express human SCF, GM-CSF, and IL3 (NSGS) as previously described (Wunderlich et al., 2010). Mice were monitored by performing complete blood counts (Drew Hemavet 950FS). Following red cell lysis, human MDSL cells were identified by hCD45-FITC staining. In vivo delivery of IRAK-Inh approach is adapted from previous reports (Yang et al., 2011): IRAK-Inh was diluted in DMSO (5 mM) and further dissolved in sterile phosphate buffered saline (PBS; pH 7.2). Animals were injected i.p. with 2.12 mg/kg IRAK-Inh 3× weekly.
(§2) To determine whether IRAK-Inh can delay human MDS-like disease in vivo, MDSL were pre-treated with IRAK-Inh (10 μM) for 24 hrs in vitro and subsequently injected intravenously (i.v.) into NSG (5×10^6 cells) and NSGS (1×10^6 cells) recipient mice (FIG. 4A). This approach permitted us to evaluate the cell autonomous effect of IRAK-Inh on MDS cell viability and engraftment without altering endogenous IRAK1 function in the mouse.

normal CD34+ cells = experiment: Colony formation in methylcellulose, normal CD34+ cells
Experimental: (§5) The effect of IRAK-Inh on leukemic progenitor function was evaluated in methylcellulose containing IRAK-Inh. […] As an alternative approach, MDS/AML cells were pre-treated with IRAK-Inh for 24 hours and then plated in methylcellulose.

MDSL cells [2] = experiment: MDSL xenograft, in vivo i.p. delivery after engraftment, NSG mice
Experimental: as §1
as §2, with “mouse. […] In addition, the human MDSL graft was reduced from 8% to 2% (FIG. 4D). Morphological assessment confirmed normal RBC and reduced MDS grafts in the peripheral blood and marrow of mice transplanted with IRAK-Inh-treated MDSL cells (FIG. 4E). […]” for “mouse.”

MDS patient marrow cells [3] = experiment: Colony formation in methylcellulose, primary MDS marrow cells; settings: continuously treated or briefly exposed
From the text: as §4

[4] = tested on: normal cord blood-derived CD34+ cells; experiment: Growth and viability of normal CD34+ cells; type: cell-based, human; settings: even high doses
Experimental: Acute myeloid leukemic cell lines, HL60, THP1, and TF-1 were purchased from the American Type Culture Collection. MOLM13 were purchased from AddexBio. The myelodysplastic cell line, MDS-L, was provided by Dr. Kaoru Tohyama (Kawasaki Medical School, Okayama, Japan) (Matsuoka et al., 2010). Cell-lines were cultured in RPMI 1640 medium with 10% FBS and 1% penicillin-streptomycin. Additionally, both the MDSL and TF-1 cell lines were cultured in the presence of 10 ng/mL human recombinant IL-3 (Stemcell Technologies). […] Human CD34+ UCB cells and primary MDS/AML cells were maintained in StemSpan Serum-Free Expansion Media (Stemcell Technologies) supplemented with 10 ng/mL of recombinant human stem cell factor (SCF), Flt3 ligand (Flt3L), thrombopoietin (TPO), IL-3, and IL-6 (Stemcell Technologies).

MDS/AML cell lines = experiment: Colony formation in methylcellulose, MDS/AML cell lines; type: cell-based, human
Experimental: as §5

MDS patient marrow cells [5] = settings: 48 hrs
Experimental: (§3) Annexin V analysis was carried out as previously described (Fang et al., 2012). Cells were stained after either drug treatment or lentiviral transduction with Annexin V (eBioscience) and propidium iodide (Sigma-Aldrich), or 7AAD (eBioscience) according to the manufacturer's instructions. Analysis was performed using BD FACSCalibur or FACSCanto flow cytometer with either CellQuest or Diva software. For in vitro growth assays, cell expansion in liquid culture was determined based on trypan blue exclusion using an automated cell counter (BioRad TC10). For experiments beyond 48 hrs, cells were replenished with fresh media and drug every second day. For primary patient marrow cells, cell were treated with a single inhibitor dose and counted 24 and 48 hours later. NF-κB DNA-binding assay Nuclear lysates were isolated from treated cells as previously described (Starczynowski et al., 2011). NF-κB (p65) DNA binding was measured using an ELISA-based assay according to the manufacturer's recommendations (KHO0371, Invitrogen)

NF-κB (RelA/p65) = settings: MDS/AML cell lines (THP1, HL60), 10 μM, 24 hrs
Experimental: as §3

primary AML marrow cells = experiment: Growth/viability of primary AML marrow cells; type: cell-based, human
From the text: AML patient samples were acquired following informed consent and under the direction of IRB approved protocols.

IRAK1, sequence (P51617 whole entry, species assumed): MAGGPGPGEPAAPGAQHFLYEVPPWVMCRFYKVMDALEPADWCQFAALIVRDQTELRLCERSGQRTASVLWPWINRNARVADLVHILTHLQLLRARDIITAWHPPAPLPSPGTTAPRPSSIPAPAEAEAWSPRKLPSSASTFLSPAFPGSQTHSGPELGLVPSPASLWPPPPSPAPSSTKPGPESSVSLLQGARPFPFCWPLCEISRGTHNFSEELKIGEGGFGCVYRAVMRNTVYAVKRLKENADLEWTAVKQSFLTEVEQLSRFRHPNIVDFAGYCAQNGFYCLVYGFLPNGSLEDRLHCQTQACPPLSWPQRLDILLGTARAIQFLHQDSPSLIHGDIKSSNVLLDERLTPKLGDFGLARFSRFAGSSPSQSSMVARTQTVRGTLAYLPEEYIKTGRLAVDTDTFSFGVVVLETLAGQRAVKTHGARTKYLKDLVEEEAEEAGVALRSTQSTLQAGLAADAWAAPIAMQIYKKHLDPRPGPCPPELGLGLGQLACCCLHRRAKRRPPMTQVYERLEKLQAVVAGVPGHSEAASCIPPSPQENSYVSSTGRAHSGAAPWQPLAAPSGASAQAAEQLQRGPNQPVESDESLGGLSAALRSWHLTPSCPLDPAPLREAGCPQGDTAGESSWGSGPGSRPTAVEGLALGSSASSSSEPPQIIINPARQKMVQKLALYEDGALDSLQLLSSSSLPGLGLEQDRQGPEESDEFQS

For `O=C(Nc1nc2ccccc2n1CCN1CCOCC1)c1cccc([N+](=O)[O-])c1` [IRAK-Inh, N-(2-morpholinylethyl)-2-(3-nitrobenzoylamido)-benzimidazole], the pIC50 (IRAK1; read-out: IC50 IRAK1, FIG. 9A legend) is given as 6.52, the pIC50 (IRAK1; read-out: IC50 IRAK1 kinase activity, Wang et al., 2009) is given as 6.12 and the AML progenitor function (AML patient cells) is given as “did not affect”. For the same compound, the “leukemic progenitor function of AML patient cells” value (AML patient cells; IRAK-Inh 10 μM, ABT-263 0.1 μM) was “not sensitive”, the median survival (MDSL cells [1]; MDSL pre-treated 10 μM 24 hrs, 5×10^6 cells i.v., control 68 days) was 80 days and the “human MDSL graft” value (MDSL cells [1]; peripheral blood, 28 days post-transplant, control 8%) was 2%. The “control CD34+ cell progenitor function” value (normal CD34+ cells) was “did not affect”, the “colony formation, methylcellulose containing inhibitor” value (normal CD34+ cells; normal CD34+) was “equivalent number of colonies” and the “HCT and Hb levels” value (MDSL cells [2]; 2.12 mg/kg i.p. 3×/week from day 6) was “maintained HCT and Hb levels”. For the same compound, the “human graft in peripheral blood (hCD45)” value (MDSL cells [2]; within ~7 days of receiving 2.12 mg/kg i.p. 3×/week) was “reduced human graft in the peripheral blood”, the “colony formation of MDS marrow cells” value (MDS patient marrow cells [3]) was “significantly fewer colonies” and the “proliferation of normal CD34+ cells” value [4] was “not affected”. For the same compound, the “colony formation, methylcellulose containing inhibitor” value (MDS/AML cell lines; all MDS/AML cells, continuous treatment) was “significantly fewer colonies”, the “colony formation after transient exposure” value (MDS/AML cell lines; pre-treated 24 hr, 10 μM, then plated) was “significantly fewer colonies” and the “expansion of MDS marrow cells” value (MDS patient marrow cells [5]) was “failed to expand”. The “apoptotic cells in MDS marrow cells” value (MDS patient marrow cells [5]; except for MDS-07) was “increased levels of apoptotic cells”, the “DNA bound and active RelA/p65 decreased by” value (NF-κB (RelA/p65)) was roughly 50% and the “growth of AML marrow cells” value (primary AML marrow cells) was “continued to grow similar to control-treated cells”. The “viability of primary AML marrow cells” value (primary AML marrow cells) was “only modestly reduced”.
